Source: ChEMBL document CHEMBL5329189, “Design, synthesis, and anti-hepatocellular carcinoma of thiopyrimidine/chalcone hybrids as dual STAT3/STAT5 inhibitors” (RSC Med Chem, 2023)
pIC50: −log10 of the molar value. Values belong to the compound of their own block, whether it stands above or below them. Calls of active or inactive are those of the source. The calls are words filed in the database; no cut-off is given here.

Experiments:
[1] = system: Huh-7; assay: Antitumor activity against human Huh7 cells measured after 48 hrs by MTT assay; type: functional, cell-based; conditions: Huh-7, 48 h
[2] = system: HepG2; assay: Antitumor activity against human HepG2 cells measured after 48 hrs by MTT assay; type: functional, cell-based; conditions: HepG2, 48 h
[3] = biological target: T1, Signal transducer and activator of transcription 5A (Homo sapiens) (UniProt P42229); assay: Inhibition of STAT5a (unknown origin) using TMB as substrate assessed as reduction in phosphorylated STAT5a at Y694 residue at 10 uM incubated for 1.5 hrs by ELISA (reference value: 11.15 +/- 0.91 ng/ml)
T1 sequence (whole entry): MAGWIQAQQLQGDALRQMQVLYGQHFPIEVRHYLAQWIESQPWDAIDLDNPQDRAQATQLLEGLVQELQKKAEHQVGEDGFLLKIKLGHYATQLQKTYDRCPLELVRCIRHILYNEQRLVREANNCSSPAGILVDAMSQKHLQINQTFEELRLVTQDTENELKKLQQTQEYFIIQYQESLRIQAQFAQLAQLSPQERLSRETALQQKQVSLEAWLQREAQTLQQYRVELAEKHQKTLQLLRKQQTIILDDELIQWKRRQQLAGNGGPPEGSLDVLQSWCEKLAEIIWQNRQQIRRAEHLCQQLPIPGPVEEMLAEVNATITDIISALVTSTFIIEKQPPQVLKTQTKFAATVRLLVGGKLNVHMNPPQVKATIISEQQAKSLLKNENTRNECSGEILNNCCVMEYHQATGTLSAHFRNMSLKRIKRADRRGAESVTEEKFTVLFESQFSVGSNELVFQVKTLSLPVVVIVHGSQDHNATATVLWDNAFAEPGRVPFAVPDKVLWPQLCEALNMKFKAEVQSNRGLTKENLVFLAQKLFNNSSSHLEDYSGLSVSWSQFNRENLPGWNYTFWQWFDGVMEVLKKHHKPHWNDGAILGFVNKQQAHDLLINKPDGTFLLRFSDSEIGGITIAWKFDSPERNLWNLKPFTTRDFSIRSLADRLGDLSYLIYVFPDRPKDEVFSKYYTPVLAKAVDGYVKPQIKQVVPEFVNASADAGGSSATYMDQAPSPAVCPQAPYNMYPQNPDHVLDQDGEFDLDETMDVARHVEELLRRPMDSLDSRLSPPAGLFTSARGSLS

[4] = Selectivity index, ratio of IC50 for cytotoxicity against THLE-2 cells to IC50 for antitumor activity against human Huh-7 cells; type: cell-based; conditions: THLE-2 cells versus Huh-7 cells, read-out: Ratio IC50
[5] = biological target: Signal transducer and activator of transcription 3 (Homo sapiens) (UniProt P40763); assay: Inhibition of STAT3 phosphorylation at Tyr705 residue in human HepG2 cells incubated for 24 hrs by Western blot analysis; type: cell-based
Signal transducer and activator of transcription 3 (Homo sapiens), sequence (P40763 whole entry): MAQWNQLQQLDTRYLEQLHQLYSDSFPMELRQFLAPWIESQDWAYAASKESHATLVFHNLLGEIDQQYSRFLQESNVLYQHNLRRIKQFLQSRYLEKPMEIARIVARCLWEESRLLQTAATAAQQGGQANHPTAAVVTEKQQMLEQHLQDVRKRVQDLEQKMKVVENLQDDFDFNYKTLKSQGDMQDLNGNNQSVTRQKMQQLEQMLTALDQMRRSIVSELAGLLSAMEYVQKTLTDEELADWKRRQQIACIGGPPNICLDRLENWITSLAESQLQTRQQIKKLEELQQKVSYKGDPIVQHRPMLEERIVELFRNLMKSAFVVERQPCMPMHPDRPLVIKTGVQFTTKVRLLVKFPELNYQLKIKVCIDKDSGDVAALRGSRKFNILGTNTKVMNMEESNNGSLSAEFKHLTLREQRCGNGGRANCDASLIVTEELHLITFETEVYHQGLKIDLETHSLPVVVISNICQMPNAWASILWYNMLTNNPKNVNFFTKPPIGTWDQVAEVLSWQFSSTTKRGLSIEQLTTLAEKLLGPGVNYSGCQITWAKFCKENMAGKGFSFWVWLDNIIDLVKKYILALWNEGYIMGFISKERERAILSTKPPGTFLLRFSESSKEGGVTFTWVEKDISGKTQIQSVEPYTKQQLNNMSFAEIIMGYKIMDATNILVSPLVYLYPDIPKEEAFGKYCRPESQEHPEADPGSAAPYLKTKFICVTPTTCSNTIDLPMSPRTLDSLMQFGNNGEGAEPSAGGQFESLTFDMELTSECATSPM

[6] = Selectivity index, ratio of IC50 for cytotoxicity against THLE-2 cells to IC50 for antitumor activity against human HepG2 cells; type: cell-based; conditions: THLE-2 cells versus HepG2 cells, read-out: Ratio IC50
[7] = Cytotoxicity against THLE-2 cells measured after 48 hrs by MTT assay; type: toxicity, cell-based; conditions: human
[8] = biological target: Signal transducer and activator of transcription 3 (Homo sapiens) (UniProt P40763); assay: Inhibition of STAT3 (unknown origin) using TMB as substrate assessed as reduction in phosphorylated STAT3 at Y705 residue at 10 uM incubated for 5 hrs by ELISA (reference value: 14.53 +/- 0.4 ng/ml)
[9] = system: Huh-7; assay: Potency index, ratio of static IC50 to test compound IC50 for antitumor activity against human Huh-7 cells incubated for 48 hrs by MTT assay; type: functional
[10] = system: HepG2; assay: Potency index, ratio of stattic IC50 to test compound IC50 for antitumor activity against human HepG2 cells incubated for 48 hrs by MTT assay; type: functional
[11] = system: HepG2; assay: Effect on total STAT3 protein level in human HepG2 cells incubated for 24 hrs by Western blot analysis; type: functional, cell-based
[12] = biological target: T2, Signal transducer and activator of transcription 1-alpha/beta (Homo sapiens) (UniProt P42224); assay: Inhibition of STAT1 in human HepG2 cells assessed as reduction in STAT1 phosphorylation at Tyr701 residue incubated for 24 hrs by Western blot analysis; type: cell-based
T2 sequence (whole entry): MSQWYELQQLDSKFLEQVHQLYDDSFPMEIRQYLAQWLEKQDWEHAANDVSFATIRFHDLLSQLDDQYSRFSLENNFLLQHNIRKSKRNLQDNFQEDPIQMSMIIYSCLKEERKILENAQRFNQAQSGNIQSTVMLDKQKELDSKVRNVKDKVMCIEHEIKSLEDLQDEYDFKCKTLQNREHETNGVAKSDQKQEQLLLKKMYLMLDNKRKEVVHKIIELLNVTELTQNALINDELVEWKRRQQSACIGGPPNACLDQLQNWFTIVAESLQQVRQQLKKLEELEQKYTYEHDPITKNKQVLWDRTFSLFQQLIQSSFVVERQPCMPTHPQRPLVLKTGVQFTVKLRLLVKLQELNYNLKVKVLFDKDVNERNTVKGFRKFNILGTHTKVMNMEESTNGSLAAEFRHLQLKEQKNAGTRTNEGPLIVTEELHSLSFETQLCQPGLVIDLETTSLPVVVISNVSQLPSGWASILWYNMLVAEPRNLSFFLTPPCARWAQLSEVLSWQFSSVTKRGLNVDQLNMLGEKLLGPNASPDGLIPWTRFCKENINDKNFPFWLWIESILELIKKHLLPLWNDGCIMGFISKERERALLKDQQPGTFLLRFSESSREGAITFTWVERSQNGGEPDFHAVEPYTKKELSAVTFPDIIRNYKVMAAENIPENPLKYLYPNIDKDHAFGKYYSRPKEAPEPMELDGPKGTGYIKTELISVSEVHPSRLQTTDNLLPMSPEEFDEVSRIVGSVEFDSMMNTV

[13] = system: HepG2; assay: Inhibition of STAT5 phosphorylation at Tyr694 residue in human HepG2 cells incubated for 24 hrs by Western blot analysis; type: cell-based
[14] = system: HepG2; assay: Effect on total STAT5 protein level in human HepG2 cells incubated for 24 hrs by Western blot analysis; type: functional, cell-based
[15] = system: HepG2; assay: Potency index, ratio of doxorubicin IC50 to test compound IC50 for antitumor activity against human HepG2 cells incubated for 48 hrs by MTT assay; type: functional
[16] = biological target: T1, Signal transducer and activator of transcription 5A (Homo sapiens); assay: Inhibition of STAT5a (unknown origin) using TMB as substrate assessed as reduction in phosphorylated STAT5a at Y694 residue by measuring fold change at 10 uM incubated for 1.5 hrs by ELISA relative to control
[17] = system: Huh-7; assay: Potency index, ratio of doxorubicin IC50 to test compound IC50 for antitumor activity against human Huh-7 cells incubated for 48 hrs by MTT assay; type: functional
[18] = biological target: Signal transducer and activator of transcription 3 (Homo sapiens) (UniProt P40763); assay: Inhibition of STAT3 (unknown origin) using TMB as substrate assessed as reduction in phosphorylated STAT3 at Y705 residue by measuring fold change at 10 uM incubated for 5 hrs by ELISA relative to control
[19] = biological target: Signal transducer and activator of transcription 3 (Homo sapiens) (UniProt P40763); assay: Inhibition of STAT3 (unknown origin) using TMB as substrate assessed as reduction in phosphorylated STAT3 at Y705 residue incubated for 5 hrs by ELISA (reference value: 14.53 +/- 0.4 ng/ml)
[20] = biological target: T1, Signal transducer and activator of transcription 5A (Homo sapiens); assay: Inhibition of STAT5a (unknown origin) using TMB as substrate assessed as reduction in phosphorylated STAT5a at Y694 residue incubated for 1.5 hrs by ELISA (reference value: 11.15 +/- 0.91 ng/ml)

pIC50 [1]: 5.80 | pIC50 [2]: 5.29
SMILES: COc1cc(/C=C/C(=O)c2ccc(NC(=O)CSc3nc(N)cc(=O)[nH]3)cc2)cc(OC)c1

pIC50 [1]: 5.17 | pIC50 [2]: 5.09
SMILES: COc1ccc(/C=C/C(=O)c2ccc(NC(=O)CSc3nc(N)cc(=O)[nH]3)cc2)cc1

Activity [3]: 2.28 ng/mL | inhibition [5]: Active | Activity [8]: 3.19 ng/mL | pIC50 [1]: 6.26 | inhibition [12]: inactive | pIC50 [2]: 5.71 | fold change (FC) [16]: 4.8 | fold change (FC) [18]: 4.5
SMILES: COc1cc(/C=C/C(=O)c2ccc(NC(=O)CSc3nc(N)cc(=O)[nH]3)cc2)cc(OC)c1OC
selectivity ratio [4]: 115 | selectivity ratio [6]: 32.4 | IC50 at 48 h [7]: 63.2 µM | Ratio IC50 [9]: 14.3 | Ratio IC50 [10]: 4.2 | Activity [11]: inactive | inhibition [13]: Active | Activity [14]: inactive | Ratio IC50 [15]: 3.7 | Ratio IC50 [17]: 10.4

pIC50 [1]: 4.64 | pIC50 [2]: 4.51
SMILES: CN(C)c1ccc(/C=C/C(=O)c2ccc(NC(=O)CSc3nc(N)cc(=O)[nH]3)cc2)cc1

Activity [3]: 4.44 ng/mL | Activity [8]: 5.09 ng/mL | pIC50 [1]: 5.61 | pIC50 [2]: 5.59 | fold change (FC) [16]: 2.5 | fold change (FC) [18]: 2.8
SMILES: Cc1ccc(/C=C/C(=O)c2ccc(NC(=O)CSc3nc(N)cc(=O)[nH]3)cc2)cc1
selectivity ratio [4]: 20.3 | selectivity ratio [6]: 19.2 | IC50 at 48 h [7]: 49.5 µM

The next lines start with the compound.

SMILES: Nc1cc(=O)[nH]c(SCC(=O)Nc2ccc(C(=O)/C=C/c3ccc(F)cc3)cc2)n1
pIC50 [1]: 4.60 | pIC50 [2]: 4.65

SMILES: COc1cccc2c1C(=O)c1c(O)c3c(c(O)c1C2=O)C[C@@](O)(C(=O)CO)C[C@@H]3O[C@H]1C[C@H](N)[C@H](O)[C@H](C)O1 [DOXORUBICIN]
pIC50 [1]: 5.24 | pIC50 [2]: 5.13

SMILES: Nc1cc(=O)[nH]c(SCC(=O)Nc2ccc(C(=O)/C=C/c3ccccc3Cl)cc2)n1
pIC50 [1]: 5.66 | pIC50 [2]: 5.45

SMILES: O=[N+]([O-])c1ccc2c(c1)S(=O)(=O)C=C2
Activity [19]: 4.9 ng/mL | Activity [20]: 9.43 ng/mL | IC50 at 48 h [7]: > 100 µM | pIC50 [1]: 5.10 | pIC50 [2]: 5.08

SMILES: Nc1cc(=O)[nH]c(SCC(=O)Nc2ccc(C(=O)/C=C/c3ccc(Cl)cc3Cl)cc2)n1
pIC50 [1]: 5.08 | pIC50 [2]: 5.31

SMILES: Nc1cc(=O)[nH]c(SCC(=O)Nc2ccc(C(=O)/C=C/c3ccc(Cl)cc3)cc2)n1
pIC50 [1]: 5.14 | pIC50 [2]: 4.95
